Measurements published in the supplement of paper PMC10477900.

Columns and labels:
HCT116 [1] = experiment: viability inhibition vs untreated; higher = more cytotoxic; details: 72 h
HCT116 [2] = details: 72 h
Protocol: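 HCT116 control and MTA1-KO (CRISPR) HCT116 cells were seeded in 384-well plates (800 cells/well), treated 16 h later with 237 metabolism-related anticancer drugs at five doses (10 uM, 2 uM, 400 nM, 80 nM, 16 nM) for 72 h, two replicates; viability by CCK8. Values are % inhibition of viability relative to untreated cells, plus fitted IC50.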

Structure (SMILES) | viability inhibition (HCT116 [1]; genotype: MTA1-KO, 16 nM) | viability inhibition (HCT116 [1]; genotype: MTA1-KO, 80 nM) | viability inhibition (HCT116 [1]; genotype: MTA1-KO, 400 nM) | viability inhibition (HCT116 [1]; genotype: MTA1-KO, 2000 nM) | viability inhibition (HCT116 [1]; genotype: MTA1-KO, 10000 nM) | viability inhibition (HCT116 [1]; genotype: control, 16 nM) | viability inhibition (HCT116 [1]; genotype: control, 80 nM) | viability inhibition (HCT116 [1]; genotype: control, 400 nM) | viability inhibition (HCT116 [1]; genotype: control, 2000 nM) | viability inhibition (HCT116 [1]; genotype: control, 10000 nM) | IC50 (HCT116 [2]; genotype: MTA1-KO) | IC50 (HCT116 [2]; genotype: control)
Cc1ccccc1C(C(=O)NC1CCCCC1)N(C(=O)Cn1ccnc1C)c1cccc(F)c1 (stereo not drawn) [AGI5198] | 7.58% | 7.91% | 5.76% | 8.57% | 37.4% | -3.24% | -17.7% | -10.7% | -12.3% | 2.37% | > 10 µM | > 10 µM
O=C(Nc1cccc(C(F)(F)F)c1)Nc1cc(S(=O)(=O)NC2CC2)ccc1-c1ccsc1 [AGI6780] | 4.84% | -6.61% | 9.84% | 15.6% | 49.9% | 13.6% | 18.2% | 3.86% | 16.8% | 22.5% | > 10 µM | > 10 µM
NC(=O)c1ncn([C@@H]2O[C@H](CO)[C@@H](O)[C@H]2O)c1N [AICAR (Acadesine)] | -0.376% | 0.906% | -7.18% | -5.56% | 6.99% | -3.52% | -3.58% | -3.52% | -4.22% | 37.8% | > 10 µM | > 10 µM
CC[C@H](CC#N)OC(=O)N[C@@H](C)c1cccc(NC(=O)Nc2ccc(-c3cnco3)c(OC)c2)c1 [AVN944] | 5.16% | 4.61% | 58.7% | 80.9% | 93.7% | -0.119% | 29.5% | 75.2% | 92.9% | 96.3% | 0.311 µM | 0.131 µM
Cc1[nH]nc(C(F)(F)F)c1Cc1sc2c(c1C(=O)N1C[C@](C)(O)CO1)c(=O)n(C)c(=O)n2C(C)C [AZD3965] | -7.19% | 25.1% | 22.9% | 31.7% | 47.6% | 0.727% | 24.8% | 21.6% | 40.3% | 45.9% | 0.576 µM | 0.338 µM
COc1ccc(-c2ccc3c(N4CCOC[C@@H]4C)nc(N4CCOC[C@@H]4C)nc3n2)cc1CO [AZD8055] | -21.9% | -16.3% | 15.5% | 41.3% | 67.5% | 0.243% | 13.1% | 36.1% | 46.1% | 37.6% | 0.843 µM | > 10 µM
COCCNC(=O)Nc1ccc2nc(-c3cccs3)c(-c3cccs3)nc2c1 [Ac-CoA Synthase Inhibitor1] | -8.17% | 14.9% | 15% | 10.1% | 6.2% | 3.53% | 9.39% | -0.277% | -10.1% | 8.5% | > 10 µM | > 10 µM
CC(=O)Nc1nnc(S(N)(=O)=O)s1 [Acetazolamide] | -8.41% | -9.41% | -15.4% | -8.8% | 6.99% | -4.74% | -13.5% | -4.54% | -3.32% | -0.433% | > 10 µM | > 10 µM
Nc1ncnc2c1ncn2[C@@H]1O[C@H](COP(=O)(O)O)[C@@H](O)[C@H]1O [Adenosine 5'-monophosphate monohydrate] | -22.7% | -25.1% | -20.2% | -18.3% | -15.5% | 14.8% | 5.2% | 12.1% | 10.3% | 11.9% | > 10 µM | > 10 µM
